The values below come from patent US8119616B2, “Formulation of quinazoline based EGFR inhibitors containing a zinc binding moiety” (Curis, Inc., priority 2007, dated 2012).

The test system of this assay is EGFR. Nature of the assay: EGFR phosphorylation in MDA-MB-468 breast cancer cell line. The format is cell-based. Particulars: FIG. 2. How it is done:
Allowed A431 cell growth in a T75 flask using standard tissue culture procedures until cells reach near confluency (˜1.5×10^7) cells; D-MEM, 10% FBS). Under sterile conditions dispensed 100 μl of the cell suspension per well in 96-well microplates (x cells plated per well). Incubated cells and monitor cell density until confluency is achieved with well-to-well consistency; approximately three days. Removed complete media from plate wells by aspiration or manual displacement. Replaced media with 50 μl of pre-warmed serum free media per well and incubated 4 to 16 hours. Made two fold serial dilutions of inhibitor using pre-warmed D-MEM so that the final concentration of inhibitor range from 10 μM to 90 pM. Removed media from A431 cell plate. Added 100 μl of serial diluted inhibitor into cells and incubate 1 to 2 hours. Removed inhibitor from plate wells by aspiration or manual displacement. Added either serum free media for resting cells (mock) or serum free media with 100 ng/ml EGF. Used 100 μl of resting/activation media per well. Allowed incubation at 37° C. for 7.5 minutes. Removed activation or stimulation media manually or by aspiration. Immediately fixed cells with 4% formaldehyde in 1×PBS. […] Determined the ratio of […] protein (700/800) using Odyssey software and plot the results in Graphpad Prism (V4.0a).

With `C#Cc1cccc(Nc2ncnc3cc(OC)c(OCCCCCCC(=O)NO)cc23)c1` [Compound 12, 7-(4-(3-ethynylphenylamino)-7-methoxyquinazolin-6-yloxy)-N-hydroxyheptanamide], the “inhibition of EGFR phosphorylation compared with Erlotinib” value is reported as “improvement in inhibition”.
